Reference: BigSolDB 2.1

S=c1[nH]c2ccccc2s1
solubility (mole fraction) (in isobutanol, 303.15 K): 0.027 | solubility (mole fraction) (in isobutanol, 305.65 K): 0.0292 | solubility (mole fraction) (in isobutanol, 308.15 K): 0.0311 | solubility (mole fraction) (in isobutanol, 310.65 K): 0.0336 | solubility (mole fraction) (in isobutanol, 313.15 K): 0.0361 | solubility (mole fraction) (in isobutanol, 315.65 K): 0.0386 | solubility (mole fraction) (in isobutanol, 318.15 K): 0.0411 | solubility (mole fraction) (in isopropanol, 273.15 K): 0.00949 | solubility (mole fraction) (in isopropanol, 275.65 K): 0.0103 | solubility (mole fraction) (in isopropanol, 278.15 K): 0.0111 | solubility (mole fraction) (in isopropanol, 280.65 K): 0.0122 | solubility (mole fraction) (in isopropanol, 283.15 K): 0.0134 | solubility (mole fraction) (in isopropanol, 285.65 K): 0.0148 | solubility (mole fraction) (in isopropanol, 288.15 K): 0.0161 | solubility (mole fraction) (in isopropanol, 290.65 K): 0.0175 | solubility (mole fraction) (in isopropanol, 293.15 K): 0.0192 | solubility (mole fraction) (in isopropanol, 295.65 K): 0.0208 | solubility (mole fraction) (in isopropanol, 298.15 K): 0.0224 | solubility (mole fraction) (in isopropanol, 300.65 K): 0.0242 | solubility (mole fraction) (in isopropanol, 303.15 K): 0.0261 | solubility (mole fraction) (in isopropanol, 305.65 K): 0.0282 | solubility (mole fraction) (in isopropanol, 308.15 K): 0.0305 | solubility (mole fraction) (in isopropanol, 310.65 K): 0.0328 | solubility (mole fraction) (in isopropanol, 313.15 K): 0.0352 | solubility (mole fraction) (in isopropanol, 315.65 K): 0.0378 | solubility (mole fraction) (in isopropanol, 318.15 K): 0.0408 | solubility (mole fraction) (in methanol, 273.15 K): 0.00733 | solubility (mole fraction) (in methanol, 275.65 K): 0.00795 | solubility (mole fraction) (in methanol, 278.15 K): 0.00868 | solubility (mole fraction) (in methanol, 280.65 K): 0.00946 | solubility (mole fraction) (in methanol, 283.15 K): 0.0103 | solubility (mole fraction) (in methanol, 285.65 K): 0.0111 | solubility (mole fraction) (in methanol, 288.15 K): 0.0121 | solubility (mole fraction) (in methanol, 290.65 K): 0.0131 | solubility (mole fraction) (in methanol, 293.15 K): 0.0141 | solubility (mole fraction) (in methanol, 295.65 K): 0.0153 | solubility (mole fraction) (in methanol, 298.15 K): 0.0164 | solubility (mole fraction) (in methanol, 300.65 K): 0.0178 | solubility (mole fraction) (in methanol, 303.15 K): 0.0192 | solubility (mole fraction) (in methanol, 305.65 K): 0.0205 | solubility (mole fraction) (in methanol, 308.15 K): 0.022 | solubility (mole fraction) (in methanol, 310.65 K): 0.0235 | solubility (mole fraction) (in methanol, 313.15 K): 0.0252 | solubility (mole fraction) (in methanol, 315.65 K): 0.0269 | solubility (mole fraction) (in methanol, 318.15 K): 0.0289 | solubility (mole fraction) (in n-butanol, 273.15 K): 0.0198 | solubility (mole fraction) (in n-butanol, 275.65 K): 0.0211 | solubility (mole fraction) (in n-butanol, 278.15 K): 0.0224 | solubility (mole fraction) (in n-butanol, 280.65 K): 0.0238 | solubility (mole fraction) (in n-butanol, 283.15 K): 0.0252 | solubility (mole fraction) (in n-butanol, 285.65 K): 0.0265 | solubility (mole fraction) (in n-butanol, 288.15 K): 0.0281 | solubility (mole fraction) (in n-butanol, 290.65 K): 0.0299 | solubility (mole fraction) (in n-butanol, 293.15 K): 0.0314 | solubility (mole fraction) (in n-butanol, 295.65 K): 0.0332 | solubility (mole fraction) (in n-butanol, 298.15 K): 0.0349 | solubility (mole fraction) (in n-butanol, 300.65 K): 0.0368 | solubility (mole fraction) (in n-butanol, 303.15 K): 0.0386 | solubility (mole fraction) (in n-butanol, 305.65 K): 0.0405 | solubility (mole fraction) (in n-butanol, 308.15 K): 0.0425 | solubility (mole fraction) (in n-butanol, 310.65 K): 0.045 | solubility (mole fraction) (in n-butanol, 313.15 K): 0.0468 | solubility (mole fraction) (in n-butanol, 315.65 K): 0.0489 | solubility (mole fraction) (in n-butanol, 318.15 K): 0.0513 | solubility (mole fraction) (in n-propanol, 273.15 K): 0.015 | solubility (mole fraction) (in n-propanol, 275.65 K): 0.016 | solubility (mole fraction) (in n-propanol, 278.15 K): 0.017 | solubility (mole fraction) (in n-propanol, 280.65 K): 0.0181 | solubility (mole fraction) (in n-propanol, 283.15 K): 0.0194 | solubility (mole fraction) (in n-propanol, 285.65 K): 0.0205 | solubility (mole fraction) (in n-propanol, 288.15 K): 0.0219 | solubility (mole fraction) (in n-propanol, 290.65 K): 0.0232 | solubility (mole fraction) (in n-propanol, 293.15 K): 0.0245 | solubility (mole fraction) (in n-propanol, 295.65 K): 0.026 | solubility (mole fraction) (in n-propanol, 298.15 K): 0.0277 | solubility (mole fraction) (in n-propanol, 300.65 K): 0.029 | solubility (mole fraction) (in n-propanol, 303.15 K): 0.0309 | solubility (mole fraction) (in n-propanol, 305.65 K): 0.0324 | solubility (mole fraction) (in n-propanol, 308.15 K): 0.0342 | solubility (mole fraction) (in n-propanol, 310.65 K): 0.036 | solubility (mole fraction) (in n-propanol, 313.15 K): 0.038 | solubility (mole fraction) (in n-propanol, 315.65 K): 0.04 | solubility (mole fraction) (in n-propanol, 318.15 K): 0.0421 | solubility (mole fraction) (in toluene, 273.15 K): 0.00192 | solubility (mole fraction) (in toluene, 275.65 K): 0.00205 | solubility (mole fraction) (in toluene, 278.15 K): 0.0022 | solubility (mole fraction) (in toluene, 280.65 K): 0.00236 | solubility (mole fraction) (in toluene, 283.15 K): 0.00254 | solubility (mole fraction) (in toluene, 285.65 K): 0.00272 | solubility (mole fraction) (in toluene, 288.15 K): 0.0029 | solubility (mole fraction) (in toluene, 290.65 K): 0.0031 | solubility (mole fraction) (in toluene, 293.15 K): 0.00333 | solubility (mole fraction) (in toluene, 295.65 K): 0.00354 | solubility (mole fraction) (in toluene, 298.15 K): 0.00378 | solubility (mole fraction) (in toluene, 300.65 K): 0.00405 | solubility (mole fraction) (in toluene, 303.15 K): 0.00427 | solubility (mole fraction) (in toluene, 305.65 K): 0.00454 | solubility (mole fraction) (in toluene, 308.15 K): 0.00482 | solubility (mole fraction) (in toluene, 310.65 K): 0.0051 | solubility (mole fraction) (in toluene, 313.15 K): 0.00544 | solubility (mole fraction) (in toluene, 315.65 K): 0.00572 | solubility (mole fraction) (in toluene, 318.15 K): 0.00608
